Source: ChEMBL document CHEMBL1149679 (Bioorg Med Chem Lett, 2007)

What was measured:
[1] = biological target: T1, Polyunsaturated fatty acid lipoxygenase ALOX15 (Oryctolagus cuniculus, UniProt P12530); test: Inhibition of rabbit 15-lipoxygenase in presence of arachidonic acid
T1 sequence (P12530 whole entry): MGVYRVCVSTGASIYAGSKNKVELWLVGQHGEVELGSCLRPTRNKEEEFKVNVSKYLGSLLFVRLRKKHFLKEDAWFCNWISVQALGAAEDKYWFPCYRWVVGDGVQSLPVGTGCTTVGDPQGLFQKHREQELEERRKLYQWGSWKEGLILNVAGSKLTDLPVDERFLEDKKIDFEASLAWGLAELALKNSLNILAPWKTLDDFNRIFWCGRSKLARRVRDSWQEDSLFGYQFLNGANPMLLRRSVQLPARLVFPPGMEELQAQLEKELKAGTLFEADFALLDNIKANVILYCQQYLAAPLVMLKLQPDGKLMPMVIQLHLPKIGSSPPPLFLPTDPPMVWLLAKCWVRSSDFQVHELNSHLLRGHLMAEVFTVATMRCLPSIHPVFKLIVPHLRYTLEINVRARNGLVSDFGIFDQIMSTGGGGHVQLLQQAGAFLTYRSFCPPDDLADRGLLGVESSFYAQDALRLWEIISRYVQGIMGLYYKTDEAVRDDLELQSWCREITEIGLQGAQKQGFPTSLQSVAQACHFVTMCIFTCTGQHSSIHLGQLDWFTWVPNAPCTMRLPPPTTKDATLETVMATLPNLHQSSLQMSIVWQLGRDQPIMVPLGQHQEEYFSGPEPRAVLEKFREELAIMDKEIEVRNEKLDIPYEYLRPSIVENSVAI

[2] = biological target: T1, Polyunsaturated fatty acid lipoxygenase ALOX15; test: Inhibition of rabbit 15-lipoxygenase in presence of linoleic acid
[3] = Cmax in Sprague-Dawley rat at 7 mg/kg, po; format: ADME, organism-based; design: dose 7 mg/kg, route oral; conditions: in vivo
[4] = AUC in Sprague-Dawley rat at 7 mg/kg, po; format: ADME, organism-based; design: dose 7 mg/kg, route oral; conditions: plasma

Q: Which results are given for CCCCN1CCN(S(=O)(=O)NCCc2nc(-c3cccs3)[nH]c2-c2ccc(OC)cc2)CC1?
A: IC50 [1]: 50 nM; IC50 [2]: 14 nM; Cmax [3]: 1700 nM; AUC [4]: 4.4 µM·h
